Consider 5 molecules from US20200016130A1, “Methods of Diagnosing and Treating Small Cell Lung Cancer Using Polo-Like Kinase 1 (PLK1) Inhibitors” (Emory University, priority 2017, published 2020).

Entries after “also recorded” stand apart in the source; their conditions may differ. Where two headings read alike, the source gives them in different places.

In data set [1] the test system is panel of SCLC cell lines (DMS53, DMS114, DMS153, H146, H209, H69, H128, H187, H526).
Description: (§2) An agnostic screening approach was employed by evaluating in vitro cytotoxicity of biologically targeted agents that have not been previously evaluated in SCLC clinical trials. […] The cytotoxicity of 10 different targeted agents was determined in a panel of genomically annotated SCLC cell lines by low throughput MTS assay. Inhibitors of the bromodomain, HSP90, CDK2, MEK, PIK3CA and PLK1 were tested in a panel of SCLC cell lines (DMS53, DMS114, DMS153, H146, H209, H69, H128, H187, H526) well characterized for genetic alterations and expression profiles.
Data set [2] deals with TKO-005 PDX of platinum sensitive SCLC. The data set is described as follows: Patient derived xenograft (PDX) model of platinum sensitive SCLC (TKO-005). The class given is in vivo. An excerpt:
PDX models generated from SCLC patients enrolled in a recently completed translational phase II clinical trial of arsenic trioxide were employed. […] The activity of rigosertib was compared to that of cisplatin (expected to be active in a PDX from a platinum sensitive tumor) and arsenic trioxide (expected to have no efficacy based on the clinical trial outcome for the patient whose tumor biopsy was used to generate the PDX).
Background: A xenograft is tissue or cells of one species grown in another, often human tumour cells in immunodeficient mice.

Data set [3] relates to H292 NSCLC cell line. Description: In vitro cytotoxicity before and after shRNA knockdown of TP53 in H292. The class given is cell-based. Conditions: compared to parental and vector-treated controls. Here is the method:
(§1) Whether depletion of endogenous wild type P53 and enforced expression of active P53 mutant would alter cancer cell line sensitivity to PLK1 inhibitor was evaluated. Due to low transfection efficiency in SCLC cell lines, established NSCLC cell line models were relied on to interrogate PLK1 activity following TP53 gene modulation. In vitro cytotoxicity of PLK1 inhibitors were compared before and after shRNA knockdown of TP53 in H292 and A549. In these cell lines with wild type TP53, there was increased sensitivity to PLK1 inhibitors following shRNA knockdown in comparison to parent cells and vector treated controls (FIG. 4). We also evaluated PLK1 inhibitor activity in p53−/− H1299 cells following enforced expression of active mutant forms of TP53. There was reduced sensitivity of the mutant-bearing cell lines compared to parental p53−/− cells (FIG. 5).

For data set [4], the system named is A549 NSCLC cell line. The data set is described as follows: In vitro cytotoxicity before and after shRNA knockdown of TP53 in A549. It is filed as cell-based. As to conditions: compared to parental and vector-treated controls. The protocol: as §1
The subject of data set [5] is panel of SCLC cell lines (DMS53, DMS114, DMS153, H146, H209, H69, H128, H187, H526). Description: Agnostic cytotoxicity screening of targeted agents in panel of SCLC cell lines (MTS assay). Conditions: for IC50 concentration / activity against SCLC cell lines (in words) / In vitro activity versus a priori threshold (submicromolar in vitro cytotoxicity): panel of SCLC cell lines; for In vitro activity versus a priori threshold (submicromolar in vitro cytotoxicity): MTS assay. In general terms: Tetrazolium dyes change colour on reduction, which living cells bring about.
Description: as §2

The subject of data set [6] is DMS53 SCLC cell line. Description: In vitro cytotoxicity, low throughput MTS assay, DMS53. It is filed as cell-based. Conditions: Homo sapiens, DMS-53, TP53 c.722C > T, read-out: IC50 (nM), cell line sensitivity to volasertib.
Description: as §2
For data set [7], the system named is DMS153 SCLC cell line. Description: In vitro cytotoxicity, low throughput MTS assay, DMS153. The class given is cell-based. As to conditions: Homo sapiens, DMS-153, TP53 c.463A > C, read-out: IC50 (nM), cell line sensitivity to volasertib.
Description: as §2
The subject of data set [8] is H146 SCLC cell line. The data set is described as follows: In vitro cytotoxicity, low throughput MTS assay, H146. Conditions: Homo sapiens, NCI-H146, TP53 wild type, read-out: IC50 (nM), cell line sensitivity to volasertib. The class given is cell-based.
Description: as §2
Data set [9] relates to H209 SCLC cell line. Description: In vitro cytotoxicity, low throughput MTS assay, H209. Conditions: Homo sapiens, NCI-H209, TP53 c.673-2A > T, read-out: IC50 (nM), cell line sensitivity to volasertib. The class given is cell-based.
Description: (§3) The cytotoxicity of 10 different targeted agents was determined in a panel of genomically annotated SCLC cell lines by low throughput MTS assay. Inhibitors of the bromodomain, HSP90, CDK2, MEK, PIK3CA and PLK1 were tested in a panel of SCLC cell lines (DMS53, DMS114, DMS153, H146, H209, H69, H128, H187, H526) well characterized for genetic alterations and expression profiles.
The subject of data set [10] is H69 SCLC cell line. Description: In vitro cytotoxicity, low throughput MTS assay, H69. It is filed as cell-based. Conditions: TP53 c.511G > T, concurrent hemizygous deletion, read-out: IC50 (nM), cell line sensitivity to volasertib.
Description: as §3
Data set [11] relates to H187 SCLC cell line. The data set is described as follows: In vitro cytotoxicity, low throughput MTS assay, H187. It is filed as cell-based.
Description: as §2
For data set [12], the system named is DMS114 SCLC cell line. The data set is described as follows: In vitro cytotoxicity, low throughput MTS assay, DMS114. Conditions: Homo sapiens, DMS-114, TP53 c.637C > T, concurrent hemizygous deletion, read-out: IC50 (nM), cell line sensitivity to volasertib. It is filed as cell-based.
Description: as §3
Data set [13] deals with H526 SCLC cell line xenograft. Description: Subcutaneous xenograft model of H526 SCLC cell line. It is filed as in vivo, athymic (nu/nu) mice. As to conditions: volasertib 30 mg/kg i.p. weekly; p<0.003. The protocol:
To establish whether the promising in vitro activity of these PLK1 inhibitors translates into antitumor efficacy in vivo. The activity of PLK1 inhibitors were compared to that of approved drugs currently employed in the management of SCLC. The in vivo efficacy of volasertib (30 mg/kg i.p. weekly), cisplatin (3 mg/kg i.p. weekly) and irinotecan (25 mg/kg i.p. weekly) was tested, using a subcutaneous xenograft model of the H526 cell line, the most sensitive cell line from our in vitro screen (FIG. 2). Tumor xenografts were established in 6-week old athymic (nu/nu) mice using H526 cells (1-2×10^7) suspended in serum-free medium mixed with Matrigel™ solution and injected subcutaneously into the flank region of nude mice. Treatment began in groups of tumor-bearing mice (approximately 6 mice per group) matched for body weight and tumor volume when the tumors achieved a volume of approximately 100 mm^3.

For the molecule `CCNC(=O)c1noc(-c2cc(C(C)C)c(O)cc2O)c1-c1ccc(CN2CCOCC2)cc1` [AUY922], the “In vitro activity versus a priori threshold (submicromolar in vitro cytotoxicity)” value in data set [1] is given as “met the a priori threshold of activity”.

As to `CCc1cnn2c(NCc3ccc[n+]([O-])c3)cc(N3CCCC[C@H]3CCO)nc12` [SCH727965], the “In vitro activity versus a priori threshold (submicromolar in vitro cytotoxicity)” value in data set [1] is “met the a priori threshold of activity”.

Regarding `N.N.[Cl][Pt][Cl]` [cisplatin], in data set [2], the “Tumor growth inhibition compared to vehicle” value was “comparable efficacy”.

As to `COc1cc(OC)c(/C=C/S(=O)(=O)Cc2ccc(OC)c(NCC(=O)O)c2)c(OC)c1` [rigosertib], in data set [2], the “Tumor growth inhibition compared to vehicle” value is on record as “significant tumor growth inhibition comparable to cisplatin” and the “Tumor weight compared to vehicle” value was “reduced tumor weight”. In addition, the “Sensitivity to PLK1 inhibitor after shRNA knockdown of TP53” value (from here on “Sensitivity to PLK1 inhibitor”) in data set [3] is “sensitized”. Further, the “Sensitivity to PLK1 inhibitor” value in data set [4] is on record as “sensitized”. Moreover, in [5], the “IC50 concentration / activity against SCLC cell lines (in words)” value is reported as “picomolar IC50 concentration; also recorded: low nanomolar to picomolar activity” and the “In vitro activity versus a priori threshold (submicromolar in vitro cytotoxicity)” value is given as “met the a priori threshold of activity”.

Turning to `CC[C@@H]1C(=O)N(C)c2cnc(Nc3ccc(C(=O)N[C@H]4CC[C@H](N5CCN(CC6CC6)CC5)CC4)cc3OC)nc2N1C(C)C` [volasertib], the IC50 in data set [6] amounted to 0.118 nM; in data set [7] it was 0.672 nM; in data set [8], 0.163 nM; in data set [9], 0.057 nM; in data set [10] it was 0.018 nM; in data set [11] (Homo sapiens, NCI-H187, TP53 c.722C > G, concurrent hemizygous deletion, read-out: IC50 (nM), cell line sensitivity to volasertib), 0.004 nM. Further, the IC50 in data set [12] turned out to be 0.092 nM; in [5] (read-out: mean IC50 concentration, less sensitive SCLC cell lines) it was 0.25 nM; in data set [5] (read-out: mean IC50 concentration, more sensitive SCLC cell lines), 0.03 nM. Moreover, in data set [11] (BI6727 concentration of 0.01 nM and higher), the Surviving viable cells entry is “no surviving viable cells”. In addition, in data set [13], the “Tumor growth inhibition relative to control” value is recorded as “significant tumor growth inhibition”. The “Sensitivity to PLK1 inhibitor” value in data set [3] and in data set [4] was “sensitized” throughout. In [5], the “IC50 concentration / activity against SCLC cell lines (in words)” value is “picomolar IC50 concentration; also recorded: low nanomolar to picomolar activity”. The “In vitro activity versus a priori threshold (submicromolar in vitro cytotoxicity)” value in data set [5] is recorded as “met the a priori threshold of activity”.
